We go through two compounds from patent US9944699B2, “In vitro method for identifying compounds of the Nav 1.9 sodium channel intended for the treatment of an inflammatory skin disease” (GALDERMA RESEARCH & DEVELOPMENT, priority 2013, dated 2018).

Assay [1] relates to primary cultures of neurones from spinal ganglia of KO mice for Nav 1.9. Nature of the assay: Release of CGRP by primary neurone cultures after treatment with capsaicin (ELISA), Nav 1.9 KO mice. The assay is classed as cell-based, mouse. The conditions noted are these: capsaicin 300 nM, 15 min; neurone cultures from Nav 1.9 KO mice; versus without treatment.
Assay [2] deals with Nav 1.5 (Homo sapiens, UniProt Q14524). The conditions noted are these: cited from earlier work.
Assay [3] has as its target Nav 1.8 (Homo sapiens, UniProt Q9Y5Y9). Conditions: cited from earlier work.
The target of assay [4] is Nav 1.9 (Homo sapiens, UniProt Q9UI33). The conditions noted are these: cited from earlier work.

The structures appear in SMILES notation. pEC50: −log10 of the molar value. “Also recorded” adds a separate entry of the source.

Chain of Nav 1.9 (Q9UI33 whole entry, looked up): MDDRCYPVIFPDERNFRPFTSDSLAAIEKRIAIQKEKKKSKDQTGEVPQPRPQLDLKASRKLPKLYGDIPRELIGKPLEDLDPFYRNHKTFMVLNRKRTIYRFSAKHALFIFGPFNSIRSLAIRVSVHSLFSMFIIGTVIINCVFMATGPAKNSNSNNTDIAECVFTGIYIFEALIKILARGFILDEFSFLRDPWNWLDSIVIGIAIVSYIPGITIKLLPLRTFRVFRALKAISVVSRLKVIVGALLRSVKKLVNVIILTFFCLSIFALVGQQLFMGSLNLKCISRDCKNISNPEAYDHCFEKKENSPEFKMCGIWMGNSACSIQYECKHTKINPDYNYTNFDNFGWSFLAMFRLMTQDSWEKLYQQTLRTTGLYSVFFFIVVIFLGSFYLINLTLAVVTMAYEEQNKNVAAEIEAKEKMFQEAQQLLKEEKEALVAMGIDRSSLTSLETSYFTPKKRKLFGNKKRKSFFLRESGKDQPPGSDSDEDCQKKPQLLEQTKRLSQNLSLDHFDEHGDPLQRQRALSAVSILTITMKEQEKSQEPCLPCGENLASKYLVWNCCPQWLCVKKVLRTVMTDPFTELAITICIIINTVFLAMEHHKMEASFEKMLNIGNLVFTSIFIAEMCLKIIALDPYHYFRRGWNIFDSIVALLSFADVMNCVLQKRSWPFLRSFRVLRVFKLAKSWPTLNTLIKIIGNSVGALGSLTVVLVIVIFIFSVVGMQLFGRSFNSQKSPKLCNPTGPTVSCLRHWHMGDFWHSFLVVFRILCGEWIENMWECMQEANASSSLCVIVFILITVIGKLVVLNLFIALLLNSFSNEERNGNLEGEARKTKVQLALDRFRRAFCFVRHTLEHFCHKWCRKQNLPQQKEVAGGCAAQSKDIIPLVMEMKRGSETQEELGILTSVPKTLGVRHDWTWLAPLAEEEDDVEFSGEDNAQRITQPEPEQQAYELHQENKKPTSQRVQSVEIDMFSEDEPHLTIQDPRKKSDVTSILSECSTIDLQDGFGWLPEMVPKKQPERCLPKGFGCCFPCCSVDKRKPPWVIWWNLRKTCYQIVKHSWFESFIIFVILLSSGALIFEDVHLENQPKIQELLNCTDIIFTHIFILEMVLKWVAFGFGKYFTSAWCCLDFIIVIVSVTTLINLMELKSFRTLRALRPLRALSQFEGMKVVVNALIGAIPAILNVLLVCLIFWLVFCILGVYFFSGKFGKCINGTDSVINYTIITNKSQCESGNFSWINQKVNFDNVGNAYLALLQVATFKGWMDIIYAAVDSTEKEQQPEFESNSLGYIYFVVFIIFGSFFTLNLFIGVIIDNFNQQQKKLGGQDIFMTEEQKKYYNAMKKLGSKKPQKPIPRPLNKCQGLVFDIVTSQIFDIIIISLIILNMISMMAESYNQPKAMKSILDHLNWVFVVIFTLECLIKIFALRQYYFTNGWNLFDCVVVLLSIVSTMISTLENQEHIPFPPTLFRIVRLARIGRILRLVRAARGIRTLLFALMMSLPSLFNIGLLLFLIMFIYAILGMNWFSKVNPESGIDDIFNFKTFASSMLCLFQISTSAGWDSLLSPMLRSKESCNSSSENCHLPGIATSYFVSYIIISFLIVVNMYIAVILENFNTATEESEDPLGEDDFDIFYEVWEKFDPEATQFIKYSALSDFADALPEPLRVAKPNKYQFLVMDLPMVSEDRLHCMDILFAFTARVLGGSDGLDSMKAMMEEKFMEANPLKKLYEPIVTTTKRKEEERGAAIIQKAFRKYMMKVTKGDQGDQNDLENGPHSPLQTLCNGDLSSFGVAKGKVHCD
Chain of Nav 1.5 (Q14524 whole entry, looked up): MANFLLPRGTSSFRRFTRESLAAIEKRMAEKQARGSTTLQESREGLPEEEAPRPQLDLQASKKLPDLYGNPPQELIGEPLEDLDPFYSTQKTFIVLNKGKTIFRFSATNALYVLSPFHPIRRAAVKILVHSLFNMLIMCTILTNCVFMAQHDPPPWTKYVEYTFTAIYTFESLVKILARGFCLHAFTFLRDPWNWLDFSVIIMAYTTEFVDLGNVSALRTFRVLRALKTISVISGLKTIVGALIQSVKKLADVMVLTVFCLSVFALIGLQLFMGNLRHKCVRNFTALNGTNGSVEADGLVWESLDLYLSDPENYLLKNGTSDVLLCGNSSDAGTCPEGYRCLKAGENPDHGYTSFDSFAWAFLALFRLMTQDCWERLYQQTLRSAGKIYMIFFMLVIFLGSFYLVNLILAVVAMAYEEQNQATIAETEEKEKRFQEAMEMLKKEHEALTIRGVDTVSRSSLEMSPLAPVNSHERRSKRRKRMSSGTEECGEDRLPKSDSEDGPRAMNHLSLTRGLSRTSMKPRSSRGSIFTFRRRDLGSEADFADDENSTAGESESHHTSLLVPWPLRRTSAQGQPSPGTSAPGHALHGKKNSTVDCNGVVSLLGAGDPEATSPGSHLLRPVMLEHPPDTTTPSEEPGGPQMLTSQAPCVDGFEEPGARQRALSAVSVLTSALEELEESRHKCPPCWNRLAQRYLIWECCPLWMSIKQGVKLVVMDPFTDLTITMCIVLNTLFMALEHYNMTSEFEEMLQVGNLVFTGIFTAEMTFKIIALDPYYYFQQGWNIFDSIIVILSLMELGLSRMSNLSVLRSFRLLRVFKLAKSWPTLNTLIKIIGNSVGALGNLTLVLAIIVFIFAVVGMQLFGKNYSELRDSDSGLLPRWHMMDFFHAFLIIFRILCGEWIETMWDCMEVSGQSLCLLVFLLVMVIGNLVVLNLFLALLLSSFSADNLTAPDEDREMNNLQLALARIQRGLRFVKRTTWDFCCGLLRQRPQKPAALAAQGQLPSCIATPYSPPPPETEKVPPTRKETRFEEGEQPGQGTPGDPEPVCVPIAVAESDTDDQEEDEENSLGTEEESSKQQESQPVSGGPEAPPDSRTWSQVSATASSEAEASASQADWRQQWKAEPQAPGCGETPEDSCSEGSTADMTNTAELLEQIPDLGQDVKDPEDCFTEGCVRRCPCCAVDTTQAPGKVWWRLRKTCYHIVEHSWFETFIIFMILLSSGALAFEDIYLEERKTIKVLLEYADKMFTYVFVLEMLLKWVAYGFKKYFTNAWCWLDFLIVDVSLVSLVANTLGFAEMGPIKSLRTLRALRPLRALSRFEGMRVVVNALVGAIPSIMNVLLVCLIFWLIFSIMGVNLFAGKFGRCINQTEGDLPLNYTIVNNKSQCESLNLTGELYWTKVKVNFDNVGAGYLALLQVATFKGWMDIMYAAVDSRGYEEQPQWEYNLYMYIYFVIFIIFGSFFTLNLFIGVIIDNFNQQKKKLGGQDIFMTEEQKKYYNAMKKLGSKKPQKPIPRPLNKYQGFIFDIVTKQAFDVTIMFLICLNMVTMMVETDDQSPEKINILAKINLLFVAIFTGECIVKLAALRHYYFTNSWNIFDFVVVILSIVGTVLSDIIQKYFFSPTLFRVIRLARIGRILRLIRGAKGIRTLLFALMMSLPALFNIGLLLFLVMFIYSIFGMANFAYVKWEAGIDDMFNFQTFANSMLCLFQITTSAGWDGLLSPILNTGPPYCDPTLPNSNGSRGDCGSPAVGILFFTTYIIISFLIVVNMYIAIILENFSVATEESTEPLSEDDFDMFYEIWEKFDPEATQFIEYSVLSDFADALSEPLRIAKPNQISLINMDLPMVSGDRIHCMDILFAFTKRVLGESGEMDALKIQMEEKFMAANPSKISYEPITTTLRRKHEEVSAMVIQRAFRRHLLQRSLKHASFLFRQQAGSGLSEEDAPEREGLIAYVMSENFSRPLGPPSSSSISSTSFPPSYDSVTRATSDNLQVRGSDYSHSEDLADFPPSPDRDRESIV

For `COc1cc(CNC(=O)CCCC/C=C/C(C)C)ccc1O` [capsaicin], the “variation in the amount of CGRP released in the supernatant” value in assay [1] is “no variation; also recorded: no increase”.

In the case of `NC1=N[C@H](O)[C@H]2[C@H]3O[C@]4(O)O[C@@H]([C@@H](O)[C@@]2(N1)[C@@H]4O)[C@]3(O)CO` [TTX, tetrodotoxin], the “sensitivity to tetrodotoxin (TTX)” value in assay [2], in assay [3] and in assay [4] was “resistant” each time. Further, the pEC50 in assay [4] (read-out: EC50 of the TTX for Nav 1.9) was about 3.70.
